Experimental findings from patent US20180271863A1, “TARGETING P2 PURINERGIC RECEPTORS TO TREAT HEPATOCELLULAR CARCINOMA (HCC)” (Baylor College of Medicine, priority 2015, published 2018) are described below.

The structures appear in SMILES notation.

Holding throughout (format): cell-based, human
Assay [1] concerns Huh7 cells. As to the kind of experiment: Western blotting for cleaved PARP (apoptosis marker). The note with it: antagonist treatment alone. An excerpt: Arrows point to BrdU-positive cells, expressed as a percentage of total cells. Data represents mean±SEM, n=3-6, *p<0.05 vs. untreated. […] Data represents mean±SD, n=3, *p<0.05 vs. untreated, #p<0.05.
Applicants' observations that P2X3 agonist 2-MeSATP treatment alone was sufficient to induce cyclin D3 expression (1.9 fold) and pre-treatment with an alternative P2X3 antagonist (A317491) attenuated ATP induced cyclin D3 expression in Huh7 cells further validated the role of P2X3 purinergic receptor activation in the induction of cell-cycle progression in HCC cells (FIGS. 11C-D). Furthermore, P2X3 antagonist treatment alone was sufficient to reduce the baseline BrdU-positive cells and cyclin protein expression in serum-free conditions, implicating P2X3 activation as a necessary facilitator of Huh7 cell cycle progression (FIGS. 11A-B).
Total protein extracts were obtained by homogenizing cells in total lysis buffer (50 mM Tris-HCl, pH 7.5, 0.5 M NaCl, 2 mM EGTA, 2 mM EDTA, 1.0% Triton X-100, 0.25% Deoxycholate, 1 m/ml pepstatin, 1.0 m/ml leupeptin, 1.0 m/ml aprotinin, 1.0 mM phenylmethylsulfonyl fluoride, 1.0 mM Dithiothreitol, 2.0 mM activated Na3VO4, and 2.0 mM NaF) and centrifuging at 14,000 rpm for 10 min (4° C.). Equal amounts of total proteins as determined by BCA protein Assay (Pierce, Rockford, Ill.) were analyzed by Western blotting. […]
In general terms: Immunoblotting shows a protein as a band on a membrane.

The test system of another assay is PLC/PRF/5 cells. As to the kind of experiment: MTT assay of cell proliferation and viability, PLC/PRF/5. The note with it: ATP 100 μM, 18 h. On the procedure: Normal human primary hepatocytes isolated from healthy adults (no known history of HCC) in suspension or freshly-frozen prior to shipment (Cryoport Systems, CA) were purchased from Triangle Research Labs, NC. Fresh hepatocytes were plated on collagen-coated tissue culture plates or glass coverslips in Williams E complete media with additives (10% fetal bovine serum, 2 mM glutamine, […] insulin, 4 ng/ml glucagon, […] transferrin, 2.5 ng/ml sodium selenite, 10,000 U/ml penicillin, […] streptomycin, 50 g/ml gentamycin) for 3 h to ensure hepatocyte adherence to plates. Subsequently, hepatocytes were maintained in Williams E minimal media free from serum and growth factors for 24 h prior to treatment. Human hepatocellular carcinoma derived Huh7, and Hep3B, were cultured in Minimum Essential Medium Eagle (MEM); SNU-387 was cultured in Roswell Park Memorial Institute (RPMI) medium and PLC/PRF/5 cultured in Dulbecco's Modified Eagle's medium (DMEM). All maintenance culture media were supplemented with 10% fetal bovine serum (FBS), L-Glutamine (2 mM), penicillin (100 units/ml) and streptomycin ([…]) at 37° C. and 5% CO2. […]
Cell viability was determined using the 3-(4, 5-dimethylthiazol-2-yl)-2,5-diphenyltetrazolium (MTT, Sigma) assays. […] After shaking the plates for 30 min, the absorbance at 570 nm was measured (background subtraction at […]).
On the technique in general: Tetrazolium assays rely on reduction of a dye to a coloured formazan, in cell work by metabolically active cells.

Another assay has as its system SNU-387 cells. Put plainly: BrdU incorporation (proliferation) in SNU-387 cells. Conditions: SFM 24 hours, ATP 24 hours. On the procedure: To determine whether P2 purinergic receptor activation influences HCC cell proliferation, BrdU incorporation was assessed in HCC cells maintained in SFM for 24 hours and treated with ATP for 24 hours. ATP treatment alone was sufficient to induce proliferation in each of these cell lines (Huh7, 34%; Hep3B, 46%; SNU-387, 47% and PLC/PRF/5, 24%), identifying nucleotides as liver cancer cell mitogens (FIG. 7A).
Normal human primary hepatocytes isolated from healthy adults (no known history of HCC) in suspension or freshly-frozen prior to shipment (Cryoport Systems, CA) were purchased from Triangle Research Labs, NC. Fresh hepatocytes were plated on collagen-coated tissue culture plates or glass coverslips in Williams E complete media with additives (10% fetal bovine serum, 2 mM glutamine, […] insulin, 4 ng/ml glucagon, […] transferrin, 2.5 ng/ml sodium selenite, 10,000 U/ml penicillin, […] streptomycin, 50 g/ml gentamycin) for 3 h to ensure hepatocyte adherence to plates. […]
Formalin-fixed and paraffin embedded liver sections from HCC patients were analyzed by immunohistochemistry with anti-P2X3 antibody (Abcam, Cambridge, Mass.). […] BrdU positive cells were counted and expressed as a percentage of the total number of cells in ten randomly selected high-power fields (20×) per coverslips.
Background: Uptake of a labelled nucleoside into DNA is a usual measure of proliferation.

Assay [2] deals with Huh7 cells. Put plainly: qRT-PCR of cyclin mRNA in Huh7 cells. Conditions: 6 h treatment. On the procedure:
Normal human primary hepatocytes isolated from healthy adults (no known history of HCC) in suspension or freshly-frozen prior to shipment (Cryoport Systems, CA) were purchased from Triangle Research Labs, NC. Fresh hepatocytes were plated on collagen-coated tissue culture plates or glass coverslips in Williams E complete media with additives (10% fetal bovine serum, 2 mM glutamine, […] insulin, 4 ng/ml glucagon, […] transferrin, 2.5 ng/ml sodium selenite, 10,000 U/ml penicillin, […] streptomycin, 50 g/ml gentamycin) for 3 h to ensure hepatocyte adherence to plates. Subsequently, hepatocytes were maintained in Williams E minimal media free from serum and growth factors for 24 h prior to treatment. Human hepatocellular carcinoma derived Huh7, and Hep3B, were cultured in Minimum Essential Medium Eagle (MEM); SNU-387 was cultured in Roswell Park Memorial Institute (RPMI) medium and PLC/PRF/5 cultured in Dulbecco's Modified Eagle's medium (DMEM). All maintenance culture media were supplemented with 10% fetal bovine serum (FBS), L-Glutamine (2 mM), penicillin (100 units/ml) and streptomycin ([…]) at 37° C. and 5% CO2. Cells were maintained in serum free media (containing 2 mM L-Glutamine, 100 units/ml penicillin and ([…])) streptomycin for 24 h prior to treatment. Total RNA was isolated from human livers or cells using Trizol Reagent according to manufacturer's instructions (Invitrogen, NY). Complementary DNA (cDNA) synthesis was performed by reverse transcription of total RNA (2 μg) with high capacity cDNA reverse transcription kit (Applied Biosystems, Foster city, CA). The cDNA product was amplified by qRT-PCR in Step One Plus Real-Time PCR system using SYBR Green PCR Master Mix (Applied Biosystems, Grand Island, N.Y.). Quantitative expression values were determined using the […] as specified by manufacturers using GAPDH as a control.

Regarding `COc1cc(C(C)C)c(Oc2cnc(N)nc2N)cc1I` [AF-353], the “cleaved PARP protein expression (marker of apoptosis)” value in the assay on Huh7 cells [1] is given as “increased”.
As for `Nc1ncnc2c1ncn2[C@@H]1O[C@H](COP(=O)(O)OP(=O)(O)OP(=O)(O)O)[C@@H](O)[C@H]1O` [ATP], the “increase in cell proliferation and viability (MTT)” value in the assay on PLC/PRF/5 cells was 43%. Also, the “proliferation (BrdU incorporation) induced by ATP” value in the assay on SNU-387 cells was 47%.
For the compound `Nc1ncnc2c1ncn2[C@@H]1O[C@H](COP(=O)(O)OP(=O)(O)OP(O)(O)=S)[C@@H](O)[C@H]1O` [ATPγS], in the assay on Huh7 cells [2], the “Cyclin D3 mRNA expression vs untreated cells” value is listed as 2.1 fold.
